The source of these data is publication PMC7181960 (ChemMedChem, 2019).

Like-named read-outs stand apart in the source and are kept apart here.

Experiment [1] deals with PC3. The experiment can be described thus: PrestoBlue Cell Viability assay, 72 h. The class given is cell-based, human. The note with it: read-out: IC50 PC3, 72 h incubation.
The subject of experiment [2] is PC3 cells. Description: Cell death assay. The class given is cell-based, human. The settings on record: PC3, IC50 concentration, 72 h, flow cytometry.
For experiment [3], the system named is Vascular Endothelial Growth Factor (VEGF). The experiment can be described thus: Immunofluorescent analysis of VEGF level in PC3 cells. Format: cell-based, human. The settings on record: PC3, IC20 concentration, 24 h incubation.
Experiment [4] has as its system Caki-1. The note with it: read-out: IC50 Caki-1; 72 h incubation; values previously reported, ref [10]; cited from earlier work.
Experiment [5] relates to IMR-90. The settings on record: read-out: IC50 IMR-90; 72 h incubation; values previously reported, ref [10]; cited from earlier work.
The subject of experiment [6] is PC3 cells. The note with it: previously described, ref [16]; cited from earlier work.
Experiment [7] deals with Caki-1. Description: PrestoBlue Cell Viability assay, 72 h. The settings on record: read-out: IC50 Caki-1, 72 h incubation.

As usually defined, the IC50 is the concentration needed to halve the response being measured. On to `CC(=O)OC[C@H]1O[C@@H]([S-])[C@H](OC(C)=O)[C@@H](OC(C)=O)[C@@H]1OC(C)=O.CCP(CC)CC.[Au+]` [Auranofin], for which the results for the IC50 in experiment [1], in experiment [4] and in experiment [5] were 3.6 ± 0.005 µM, 2.8 ± 0.6 µM and 3.7 ± 0.4 µM, respectively. Further, the “apoptosis, % of the cell population” value in experiment [2] came out at 73%. The “reduction of VEGF” value in experiment [3] was 50%.

For the molecule `N.N.[Cl][Pt][Cl]` [Cisplatin], the IC50 in experiment [1] was 6.7 ± 2.8 µM; in experiment [4], 23.9 ± 2.4 µM; in experiment [5], 3.9 ± 0.5 µM.

On to `COc1ccc(C[C]2([Ti+2][C]3(Cc4ccc(OC)cc4)C=CC=C3)C=CC=C2)cc1.[Cl-].[Cl-]` [Titanocene-Y], for which the IC50 in experiment [1] worked out at 58.1 ± 11.2 µM; in experiment [7] it was 29.4 ± 4.2 µM. Also, the reduction of migration in experiment [6] was 19%.
